Measured values as given in ChEMBL document CHEMBL1201862, “PubChem BioAssay data set” (2004).
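1) Cells in 96-well plates. 2) Compound, 48 h, 5 concentrations. 3) Linear interpolation between surrounding doses. 4) Unreached endpoint = highest concentration. At the GI50, growth is halved.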 The source made the active and inactive calls. No stated cut-off is given here; in the data, active = GI50 up to about 1.1 µM and inactive = higher.

Legend:
Experiment in all cases: NCI-60 cell line screen, 48 h
NCI-H226 = system: NCI-H226
A498 = system: A498
HOP-62 = system: HOP-62
HCT-116 = system: HCT-116
NCI-H23 = system: NCI-H23
IGROV-1 = system: IGROV-1
SW-620 = system: SW-620
SNB-19 = system: SNB-19
COLO 205 = system: COLO 205
SK-MEL-5 = system: SK-MEL-5
LOX IMVI = system: LOX IMVI
OVCAR-5 = system: OVCAR-5
U-251 = system: U-251
OVCAR-8 = system: OVCAR-8
HCT-15 = system: HCT-15
SK-OV-3 = system: SK-OV-3
EKVX = system: EKVX
K562 = system: K562
HCC 2998 = system: HCC 2998
SK-MEL-28 = system: SK-MEL-28

Row | Compound | GI50 (NCI-H226) | GI50 (A498) | GI50 (HOP-62) | GI50 (HCT-116) | GI50 (NCI-H23) | GI50 (IGROV-1) | GI50 (SW-620) | GI50 (SNB-19) | GI50 (COLO 205) | GI50 (SK-MEL-5) | GI50 (LOX IMVI) | GI50 (OVCAR-5) | GI50 (U-251) | GI50 (OVCAR-8) | GI50 (HCT-15) | GI50 (SK-OV-3) | GI50 (EKVX) | GI50 (K562) | GI50 (HCC 2998) | GI50 (SK-MEL-28)
1 | COc1ccc(C2C3COc4ccccc4C3=NN2c2ccccc2)cc1 (stereo not given) | > 100 µM (inactive) | > 100 µM (inactive) | > 100 µM (inactive) | > 100 µM (inactive) | > 100 µM (inactive) | > 100 µM (inactive) | > 100 µM (inactive) | > 100 µM (inactive) | > 100 µM (inactive) | > 100 µM (inactive) | > 100 µM (inactive) | > 100 µM (inactive) | > 100 µM (inactive) | > 100 µM (inactive) | > 100 µM | > 100 µM (inactive) | > 100 µM (inactive) | > 100 µM (inactive) |  | 
2 | CCOC(C)OC1CC(n2cc(C)c(=O)[nH]c2=O)OC1CO (stereo not given) | > 100 µM (inactive) | > 100 µM (inactive) | > 100 µM (inactive) | > 100 µM (inactive) | > 100 µM (inactive) | > 100 µM (inactive) | > 100 µM (inactive) | > 100 µM (inactive) | > 100 µM (inactive) |  | > 100 µM (inactive) | > 100 µM (inactive) | > 100 µM (inactive) | > 100 µM (inactive) | > 100 µM | > 100 µM (inactive) | > 100 µM (inactive) | > 100 µM (inactive) | > 100 µM (inactive) | > 100 µM (inactive)
3 | c1ccc2c(NCCCCCCCCNc3c4ccccc4nc4ccccc34)c3ccccc3nc2c1 | 1.35 µM (inactive) | 1.26 µM (inactive) | 0.224 µM (active) | 0.0392 µM (active) | 0.257 µM (active) | 0.0927 µM (active) | 0.0506 µM (active) | 0.332 µM (active) | 0.113 µM (active) | 1.39 µM (inactive) | 0.181 µM (active) | 0.23 µM (active) | 0.184 µM (active) | 0.27 µM (active) | 0.528 µM | 0.553 µM (active) | 0.323 µM (active) | 0.0469 µM (active) | 0.0723 µM (active) | 
4 | CCOC(=O)C(O)(NC(=O)c1ccc(F)cc1)C(F)(F)F (stereo not given) | > 100 µM (inactive) |  | > 100 µM (inactive) | > 100 µM (inactive) | > 100 µM (inactive) | 57 µM (inactive) | > 100 µM (inactive) | > 100 µM (inactive) | > 100 µM (inactive) | > 100 µM (inactive) | > 100 µM (inactive) | > 100 µM (inactive) | > 100 µM (inactive) | > 100 µM (inactive) | > 100 µM | > 100 µM (inactive) | > 100 µM (inactive) | > 100 µM (inactive) | > 100 µM (inactive) | > 100 µM (inactive)
5 | CC(=O)Nc1oc(C)nc1C#N |  | > 100 µM (inactive) | > 100 µM (inactive) | > 100 µM (inactive) |  | > 100 µM (inactive) | > 100 µM (inactive) | > 100 µM (inactive) |  | > 100 µM (inactive) | > 100 µM (inactive) | > 100 µM (inactive) | > 100 µM (inactive) | > 100 µM (inactive) | > 100 µM | > 100 µM (inactive) | > 100 µM (inactive) | > 100 µM (inactive) |  | > 100 µM (inactive)
6 | Cc1cccc(N2C(=O)C3c4[nH]c5ccc(C)cc5c4C4CCC(C(C)(C)C)CC4C3C2=O)c1 (stereo not given) | 17.1 µM (inactive) |  | 15.8 µM (inactive) |  | 26.1 µM (inactive) | 26.5 µM (inactive) | 21 µM (inactive) | 25.2 µM (inactive) | 17.4 µM (inactive) | 32.5 µM (inactive) | 17.2 µM (inactive) | 32.7 µM (inactive) | 23.6 µM (inactive) | 19 µM (inactive) | 53.7 µM |  | 10.4 µM (inactive) | 23.9 µM (inactive) |  | 42.6 µM (inactive)
7 | COc1cc(C(C)O)c(S(=O)(=O)CC(C)O)nn1 (stereo not given) | 64.1 µM (inactive) | > 100 µM (inactive) |  | > 100 µM (inactive) | > 100 µM (inactive) | > 100 µM (inactive) | > 100 µM (inactive) | > 100 µM (inactive) | > 100 µM (inactive) | > 100 µM (inactive) | > 100 µM (inactive) | > 100 µM (inactive) |  | > 100 µM (inactive) | > 100 µM | > 100 µM (inactive) | 75.5 µM (inactive) | 72.9 µM (inactive) | > 100 µM (inactive) | > 100 µM (inactive)
8 | Cc1[nH]c(=O)[nH]c(=O)c1C(=O)N(CCO)Cc1ccccc1 | 17 µM (inactive) | > 100 µM (inactive) | > 100 µM (inactive) | > 100 µM (inactive) | 33 µM (inactive) | 33 µM (inactive) | > 100 µM (inactive) | > 100 µM (inactive) | 22.3 µM (inactive) |  | > 100 µM (inactive) | > 100 µM (inactive) | > 100 µM (inactive) |  | > 100 µM | > 100 µM (inactive) | > 100 µM (inactive) | > 100 µM (inactive) | > 100 µM (inactive) | > 100 µM (inactive)
9 | CCN(CC)CCOC(=O)c1ccc(N)cc1.CCOC(=O)Nc1ccc(S(=O)(=O)OC)cc1.CCOC(=O)Nc1ccc(S(=O)(=O)OC)cc1.Nc1ccc(C(=O)O)c(O)c1 | > 100 µM (inactive) | > 100 µM (inactive) | > 100 µM (inactive) | > 100 µM (inactive) | > 100 µM (inactive) | > 100 µM (inactive) | > 100 µM (inactive) | > 100 µM (inactive) |  | > 100 µM (inactive) | > 100 µM (inactive) | > 100 µM (inactive) | > 100 µM (inactive) | > 100 µM (inactive) | > 100 µM | > 100 µM (inactive) | > 100 µM (inactive) | > 100 µM (inactive) | > 100 µM (inactive) | > 100 µM (inactive)
10 | CCOC(=O)CCc1c(C)c2c(OC(C)=O)cc(OC(C)=O)cc2oc1=O | > 10 µM (inactive) |  | > 100 µM (inactive) | 62.1 µM (inactive) | 44.8 µM (inactive) |  | 45.7 µM (inactive) | 65.9 µM (inactive) | > 100 µM (inactive) |  | > 10 µM (inactive) | > 100 µM (inactive) | 55.6 µM (inactive) | 69.3 µM (inactive) |  |  | 58.3 µM (inactive) |  | 82.8 µM (inactive) | 42 µM (inactive)
11 | CC(=O)OCC1OC(N2C(=O)/C(=N\NC(N)=S)c3ccc([N+](=O)[O-])cc32)C(OC(C)=O)C1OC(C)=O (stereo not given) | 28.6 µM (inactive) |  | 31.3 µM (inactive) | 13.7 µM (inactive) | 16.4 µM (inactive) | 48.8 µM (inactive) | 36.9 µM (inactive) | 62.5 µM (inactive) | 31 µM (inactive) | 32 µM (inactive) | 19.1 µM (inactive) | 61.2 µM (inactive) | 28.1 µM (inactive) | 19.4 µM (inactive) | 76 µM | > 100 µM (inactive) | 36.6 µM (inactive) | 18.7 µM (inactive) | 26.4 µM (inactive) | 29.2 µM (inactive)
12 | CC1=C[C@]2(CC(C)C3C(CC4(C)C5CCC6C(C)(C)C(=O)CC[C@@]67C[C@@]57CC[C@]34C)O2)OC1=O (stereo not given in full) | 1.88 µM (inactive) | 23.7 µM (inactive) |  | 3.33 µM (inactive) | 7.64 µM (inactive) | 6.32 µM (inactive) | 12.6 µM (inactive) | 15.7 µM (inactive) | 36.9 µM (inactive) | 2.65 µM (inactive) | 3.46 µM (inactive) | 2.21 µM (inactive) | 14.6 µM (inactive) | 25.2 µM (inactive) | 7.64 µM |  | 44.8 µM (inactive) | 4.03 µM (inactive) | 18.1 µM (inactive) | 18.6 µM (inactive)
13 | CC(/C=N/N=C(N)N)=N\N=C(N)N | 38.5 µM (inactive) | 253 µM (inactive) | 6.58 µM (inactive) | 6.41 µM (inactive) | 18.5 µM (inactive) | 279 µM (inactive) | 7.21 µM (inactive) | 36.1 µM (inactive) | 3.02 µM (inactive) | 191 µM (inactive) | 4.18 µM (inactive) |  | 18.5 µM (inactive) | 4.55 µM (inactive) | 94 µM | 43.4 µM (inactive) | 29.1 µM (inactive) | 8.73 µM (inactive) | 5.57 µM (inactive) | 64.6 µM (inactive)
14 | C[n+]1c2ccccc2c(C(=O)NC(CCCNC(=N)N)C(=O)O)c2ccccc21 (stereo not given) |  | > 100 µM (inactive) | > 100 µM (inactive) | > 100 µM (inactive) | > 100 µM (inactive) | > 100 µM (inactive) | > 100 µM (inactive) | > 100 µM (inactive) | > 100 µM (inactive) | > 100 µM (inactive) | > 100 µM (inactive) | > 100 µM (inactive) | > 100 µM (inactive) | > 100 µM (inactive) | > 100 µM | > 100 µM (inactive) | > 100 µM (inactive) | > 100 µM (inactive) | > 100 µM (inactive) | > 100 µM (inactive)
15 | N#CCCC1(CCC#N)CCCCCCC(CCC#N)(CCC#N)C(O)C1O (stereo not given) | 53.8 µM (inactive) | > 100 µM (inactive) | > 100 µM (inactive) | > 100 µM (inactive) | > 100 µM (inactive) | > 100 µM (inactive) | > 100 µM (inactive) | > 100 µM (inactive) | 41.9 µM (inactive) | > 100 µM (inactive) | > 100 µM (inactive) | > 100 µM (inactive) | > 100 µM (inactive) | > 100 µM (inactive) | > 100 µM | > 100 µM (inactive) |  | > 100 µM (inactive) | > 100 µM (inactive) | > 100 µM (inactive)
